Measurements as given in US6759408B2 (Wyeth, priority 1999, dated 2004).

System: rat uterine decidualization
Assay: Rat decidualization assay
Type: in vivo
Details: read-out: CV-1 IC50 (mg/kg): Percentage inhibition at the dose specified
Method: 1. Rat Decidualization Assay
b. Animals (RACUC Protocol #5002)
The animals are treated once daily for seven days.
Uteri are removed and trimmed of fat.
Body weight: Mean total animal body weight (default-kg)
Decidual response: [(D-C)/C]×100%

| Compound | inhibition in vivo at 10 mg/kg [%] |
| --- | --- |
| N#Cc1ccc(-c2ccc3c(c2)C2(CCCCC2)OC(=O)N3)s1 [Compound 11, 5-(1,2-Dihydro-2-oxospiro[4H-3,1-benzoxazine-4,1-cyclohexan]-6-yl)-2-thiophenecarbonitrile] | 50 |
| Cc1cc(C#N)sc1-c1ccc2c(c1)C1(CCCCC1)OC(=O)N2 [Compound 10, 5-(1,2-Dihydro-2-oxospiro[4H-3,1-benzoxazine-4,1-cyclohexan]-6-yl)-4-methyl-2-thiophenecarbonitrile] | 50 |

System: not given
Assay: not given
Details: not given

| melting point | Compound |
| --- | --- |
| 256 to 258 °C | Cc1cc(C#N)cc(-c2ccc3c(c2)C(C)(C)OC(=O)N3)c1 [Example 58, 3-(4,4-Dimethyl-2-oxo-1,4-dihydro-2H-benzo[d][1,3]oxazin-6-yl)-5-methyl-benzonitrile] |
| 200 to 203 °C | CC1(C)OC(=O)Nc2ccc(-c3cc(F)cc(-c4ccsc4)c3)cc21 [Example 93, 6-(3-Fluoro-5-thiophen-3-yl-phenyl)-4,4-dimethyl-1,4-dihydro-benzo[d][1,3]oxazin-2-one] |
| 228 to 229 °C | O=C1Nc2ccc(-c3cc(F)cc(Br)c3)cc2C(C2CC2)(C2CC2)O1 [Example 54, 6-(3-Bromo-5-fluoro-phenyl)-4,4-dicyclopropyl-1,4-dihydrobenzo-[d][1,3]oxazin-2-one] |
| 176 °C | CC(C)(C)OC(=O)n1cccc1-c1ccc2c(c1)C(C)(C)OC(=O)N2 [Example 94, 2-(4,4-Dimethyl-2-oxo-1,4dihydro-2H-benzo[d][1,3]oxazin-6-yl)-pyrrole-1-carboxylic acid tert-butyl ester] |
| 231 to 233 °C | Cc1cc(Br)cc(-c2ccc3c(c2)C(C)(C)OC(=O)N3)c1 [Example 56, 6-(3-Bromo-5-methyl-phenyl)-4,4-dimethyl-1,4-dihydrobenzo-[d][1,3]oxazin-2-one] |
| 242 to 244 °C (dec.) | CC1(C)OC(=O)Nc2ccc(-c3cccc(S(N)(=O)=O)c3)cc21 [Example 140, 3-(4,4-Dimethyl-2-oxo-1,4-dihydro-2H-benzo[d][1,3]-oxazin-6-yl)benzenesulfonamide] |
| 212 to 213 °C | CC1(C)OC(=O)Nc2ccc(-c3cccc(C#CC#N)c3)cc21 [Example 75, 3-[3-(4,4-Dimethyl-2-oxo-1,4-dihydro-2H-benzo[d][1,3]oxazin-6-yl)-phenyl]-propynenitrile] |
| 265 °C (dec.) | CC1(C)OC(=O)Nc2ccc(-c3ccc([N+](=O)[O-])[nH]3)cc21 [Example 96, 4,4-Dimethyl-6-(5-nitro-1H-pyrrol-2-yl)-1,4-dihydrobenzo[d][1,3]oxazin-2-one] |
| 236 to 238 °C | CC1(C)OC(=O)Nc2ccc(-c3coc(C=NO)c3)cc21 [Example 145, 4-(1,4-Dihydro-4,4-dimethyl-2-oxo-2H-3,1-benzoxazin-6-yl)-2-furancarboxaldehyde oxime] |
| 288 to 289 °C | CC1(C)OC(=O)Nc2ccc(-c3cc(C#N)cc(C#N)c3)cc21 [Example 80, 5-(4,4-Dimethyl-2-oxo-1,4-dihydro-2H-benzo[d][1,3]oxazin-6-yl)-isophthalonitrile] |
| 200 to 202 °C | CC1(C)OC(=O)Nc2ccc(-c3sccc3C#N)cc21 [Example 91, 2-(4,4-Dimethyl-2-oxo-1,4-dihydro-2H-benzo[d][1,3]oxazin-6-yl)-thiophene-3-carbonitrile] |

The remaining lines, values behind:

| Compound | melting point |
| --- | --- |
| COc1cccc(-c2ccc3c(c2)C(C)(C(F)(F)F)OC(=O)N3)c1 (centres unmarked) [Example 48, 6-(3-Methoxyphenyl)-4-methyl-4-trifluoromethyl-1,4-dihydro-benzo[d][1,3]oxazin-2-one] | 178 to 179 °C |
| CCC1(CC)OC(=O)Nc2ccc(-c3cccc([N+](=O)[O-])c3)cc21 [Example 24, 4,4-Diethyl-6-(3-nitrophenyl)-1,4-dihydrobenzo[d][1,3]oxazin-2-one] | 193 to 194 °C |
| CC1(C)OC(=O)Nc2ccc(-c3cccc(C#N)c3)cc21 [Example 12, 3-(4,4-Dimethyl-2-oxo-1,4-dihydro-2H-benzo[d][1,3]oxazin-6-yl)-benzonitrile] | 236 to 237 °C |
| CC1(C)OC(=O)Nc2ccc(-c3cccc(Cl)c3)cc21 [Example 5, 6-(3-Chlorophenyl)-4,4-dimethyl-1,4-dihydrobenzo[d][1,3]oxazin-2-one] | 158 to 159 °C |
| CC1(C)OC(=O)Nc2ccc(-c3coc(C#N)c3)cc21 [Example 23, 4-(4,4-Dimethyl-2-oxo-1,4-dihydro-2H-benzo[d][1,3]oxazin-6-yl)-furan-2-carbonitrile] | 255 to 256 °C |
| CC#CC1(C)OC(=O)Nc2ccc(-c3cccc(Cl)c3)cc21 (centres unmarked) [Example 37, 6-(3-Chlorophenyl)-4-methyl-4-propyn-1-yl-1,4-dihydro-benzo[d][1,3]oxazin-2-one] | 184 to 185 °C |
| C#CC1(C)OC(=O)Nc2ccc(-c3cccc(Cl)c3)cc21 (centres unmarked) [Example 38, 6-(3-Chlorophenyl)-4-ethynyl-4-methyl-1,4-dihydro-benzo[d][1,3]oxazin-2-one] | 185 to 186 °C |
| CC1(C)OC(=O)Nc2ccc(-c3csc(C#N)c3)cc21 [Compound 17, 4-(4,4-Dimethyl-2-oxo-1,4-dihydro-2H-benzo[d][1,3]oxazin-6-yl)-thiophene-2-carbonitrile] | 230 to 231 °C (dec.) |
| O=C1Nc2ccc(-c3cccc(Cl)c3)cc2C(C2CC2)(C2CC2)O1 [Example 43, 6-(3-Chloro-phenyl)-4,4-dicyclopropyl-1,4-dihydro-benzo[d][1,3]oxazin-2-one] | 198 to 200 °C |
| CCC1(CC)OC(=O)Nc2ccc(-c3cccc(Cl)c3)cc21 [Example 25, 6-(3-Chlorophenyl)-4,4-diethyl-1,4-dihydrobenzo[d][1,3]oxazin-2-one] | 150 to 151 °C |
| CC1(C)OC(=O)Nc2ccc(-c3cncc(C#N)c3)cc21 [Example 16, 5-(4,4-Dimethyl-2-oxo-1,4-dihydro-2H-benzo[d][1,3]oxazin-6-yl)-nicotinonitrile] | 290 to 291 °C |
| Cc1cc(C#N)sc1-c1ccc2c(c1)C1(CCCCC1)OC(=O)N2 [Compound 10, 5-(1,2-Dihydro-2-oxospiro[4H-3,1-benzoxazine-4,1-cyclohexan]-6-yl)-4-methyl-2-thiophenecarbonitrile] | 200 to 203 °C |
| Cc1cc(C#N)sc1-c1ccc2c(c1)C(C)(C)OC(=O)N2 [Compound 18, 5-(4,4-Dimethyl-2-oxo-1,4-dihydro-2H-benzo[d][1,3]oxazin-6-yl)-4-methyl-thiophene-2-carbonitrile] | 195 to 200 °C |
